PubChem BioAssay (NCI)
Several values for one entry are separate records, joined by “and”; a condition that tells them apart may be missing. Identical values can stand only once.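 Five concentrations, 48 hours, 96-well plates. GI50: concentration for 50% inhibition of growth. TGI marks complete inhibition of growth.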

Legend:
Assay in all cases: inhibition of tumour cell growth, NCI panel, 48 h
HCT-116 colon = test system: HCT-116 colon
MALME-3M melanoma = test system: MALME-3M melanoma
SK-MEL-2 melanoma = test system: SK-MEL-2 melanoma
SF-539 CNS = test system: SF-539 CNS
KM12 colon = test system: KM12 colon
ACHN renal = test system: ACHN renal
NCI-H460 lung = test system: NCI-H460 lung
UACC-62 melanoma = test system: UACC-62 melanoma
SNB-75 CNS = test system: SNB-75 CNS
EKVX NSCLC = test system: EKVX NSCLC

| SMILES | TGI (HCT-116 colon) | TGI (MALME-3M melanoma) | TGI (SK-MEL-2 melanoma) | TGI (SF-539 CNS) | TGI (KM12 colon) | TGI (ACHN renal) | TGI (NCI-H460 lung) | TGI (UACC-62 melanoma) | TGI (SNB-75 CNS) | TGI (EKVX NSCLC) | GI50 (HCT-116 colon) | GI50 (MALME-3M melanoma) | GI50 (SK-MEL-2 melanoma) | GI50 (SF-539 CNS) | GI50 (KM12 colon) | GI50 (ACHN renal) | GI50 (NCI-H460 lung) | GI50 (UACC-62 melanoma) | GI50 (SNB-75 CNS) | GI50 (EKVX NSCLC) |
| --- | --- | --- | --- | --- | --- | --- | --- | --- | --- | --- | --- | --- | --- | --- | --- | --- | --- | --- | --- | --- |
| COc1cc(-c2oc3ccccc3c(=O)c2O)cc(OC)c1OC | > 100 µM | > 100 µM | > 100 µM | > 100 µM | > 100 µM | 75.4 µM | > 100 µM | > 100 µM | 25.6 µM | > 100 µM | – | – | – | – | – | – | – | – | – | – |
| COc1ccc(Cl)cc1Nc1nc(C(F)(F)F)ccc1C(=O)NN | > 100 µM | 30.2 µM | > 100 µM | > 30.7 µM | > 100 µM | > 100 µM | > 100 µM | 53.5 µM | > 100 µM | > 100 µM | 4.76 µM | 3.21 µM | 2.7 µM | 6.52 µM | 9.08 µM | 2.53 µM | 23 µM | 4.87 µM | 16.6 µM | 2.93 µM |
| NS(=O)(=O)c1ccc(N2Cc3cc(Cl)ccc3OC3=C2C(=O)N(CC2CCCCC2)C3=O)cc1 | 0.44 µM | 2.83 µM | 3.65 µM | 2.82 µM | 4.08 µM | 0.883 µM | 4.04 µM | 1.61 µM | 2.13 µM | 2.91 µM | 0.208 µM | 1.3 µM | 1.86 µM | 1.47 µM | 1.83 µM | 0.286 µM | 1.72 µM | 0.377 µM | 0.784 µM | 1.47 µM |
| CSc1ccc(C2=Nn3c(nnc3-c3ccc(F)c(Cl)c3)SC2)cc1 | 23.4 µM | 10.9 µM | 18 µM | 26.7 µM | 45.1 µM | 33.6 µM | 38.6 µM | 8.19 µM | 16 µM | > 100 µM | 9.85 µM | 2.01 µM | 4.77 µM | 10.1 µM | 7.78 µM | 13.7 µM | 14.6 µM | 2.04 µM | 4.67 µM | 42.1 µM |
| O=C(C(=O)c1ccc(Cc2ccc(C(=O)C(=O)c3ccccc3)cc2)cc1)c1ccccc1 | > 100 µM | > 100 µM | > 100 µM | > 100 µM | > 100 µM | > 100 µM | > 100 µM | > 100 µM | > 100 µM | > 100 µM | – | – | – | – | – | – | – | – | – | – |
| Cc1cc2c(cc1C)NC1=C(N2)OC(c2c[nH]c3ccc(COc4ccccc4)cc23)C1=O (stereo not given) | > 100 µM | > 100 µM | > 100 µM | 95.3 µM | > 100 µM | > 100 µM | > 100 µM | > 100 µM | 38.7 µM | > 100 µM | – | – | – | – | – | – | – | – | – | – |
| N/C(=N\OC(=O)c1ccccc1)C(C(=O)NOC(=O)c1ccccc1)C1CCCCC1 (stereo not given) | 13 µM | 27.5 µM | 26.6 µM | 20.1 µM | 25.1 µM | 10.9 µM | 9.61 µM | 32.9 µM | 11.9 µM | 20.9 µM | 3.45 µM | 10.1 µM | 12.5 µM | 7.22 µM | 11.4 µM | 3.04 µM | 2.85 µM | 11.4 µM | 2.79 µM | 6.1 µM |
| Cc1cccc(NC(=O)c2sc3nc4c(cc3c2N)CCCC4)c1C | > 100 µM | > 100 µM | > 100 µM | 1.2 µM | > 100 µM | > 100 µM | > 100 µM | > 100 µM | – | > 100 µM | 0.435 µM | 0.614 µM | 0.515 µM | 0.272 µM | 0.342 µM | 0.68 µM | 0.369 µM | 0.533 µM | 0.173 µM | 0.708 µM |
| COc1ccc(C2SC(N)=Nc3c2c(C)nn3C(=O)c2ccc(Cl)cc2)cc1OC (stereo not given) | > 10 µM | > 10 µM | > 10 µM | > 10 µM | > 10 µM | > 10 µM | > 10 µM | > 10 µM | > 10 µM | > 10 µM | – | – | – | – | – | – | – | – | – | – |
| C[n+]1cc2c3c(ccc2c2ccc4cc5c(cc4c21)OCO5)OCO3 | 0.593 µM | 1.83 µM | 2.79 µM | 3.02 µM | 1.64 µM | 2.09 µM | 3.7 µM | 2.08 µM | 2.17 µM | 2.65 µM | 0.227 µM | 0.564 µM | 1.33 µM | 1.42 µM | 0.455 µM | 0.788 µM | 1.29 µM | 0.744 µM | 1.01 µM | 1.33 µM |
| CC(C)n1c(/C=C/[C@@H](O)C[C@@H](O)CC(=O)O)c(-c2ccc(F)cc2)c2ccccc21 | 11.1 µM and > 100 µM | > 100 µM | 30.9 µM and 22.3 µM | > 100 µM | > 100 µM | > 100 µM | > 100 µM | 34.4 µM and 25 µM | > 100 µM | > 100 µM | 1.12 µM and 1.56 µM | 26.7 µM and 27.4 µM | 1.51 µM and 0.983 µM | 25.7 µM and 10.5 µM | 16.6 µM and 21.9 µM | 0.725 µM and 0.558 µM | 3.91 µM and 4.98 µM | 0.526 µM and 0.537 µM | 1.43 µM and 0.859 µM | 16.8 µM |
| CC1(C)C(=O)C(O)=CC2C1=CCC1C2(C)C(=O)CC2(C)C(C(C)(O)C(=O)CC(O)C(C)(C)O)C(O)CC12C (stereo not given) | 33.7 µM | 12.1 µM | 6.12 µM | 5.98 µM | > 100 µM | 16.2 µM | 56.5 µM | 29.7 µM | 4.77 µM | 38.8 µM | – | – | – | – | – | – | – | – | 1.74 µM | – |
| N#CC(C#N)SCc1ccccc1 | 75.5 µM | > 100 µM | 93 µM | 13.1 µM | > 100 µM | > 100 µM | > 41.6 µM | > 93.1 µM | > 96 µM | > 100 µM | – | – | – | – | – | – | – | – | – | – |
| Clc1ccc(COC(Cn2ccnc2)c2ccc(Cl)cc2Cl)cc1 (stereo not given) | 3.1 µM and 21.1 µM and 20.2 µM | 6.36 µM and 28.2 µM and 31.1 µM | 5.08 µM and 28.9 µM and 28.8 µM | 16.4 µM and 38.3 µM and 29.4 µM | 11 µM and 29.5 µM and 28.4 µM | 12.6 µM and 29.8 µM and 25.9 µM | 10.1 µM and 44.4 µM and 28.7 µM | 11.9 µM and 25.2 µM and 22.3 µM | 17.5 µM and 26.8 µM and 30.1 µM | 13.9 µM and 25.5 µM and 27.5 µM | 1.42 µM | 2.22 µM | 2.32 µM | 4.6 µM | 3.18 µM | 3.59 µM | 2.69 µM | 2.16 µM | 4.97 µM | 2.91 µM |
